Drawing on US9688710B2, “Inhibitors of sodium glucose cotransporter 1” (LEXICON PHARMACEUTICALS, INC., priority 2012, dated 2017), this text covers IC50 for 21 molecules.

Assay [1] has as its target Human sodium/glucose co-transporter type 1 (SGLT1) (Homo sapiens (Human), UniProt P13866). The assay can be described thus: In vitro human SGLT1 inhibition assay (14C-AMG uptake). In kind it is cell-based. The following applies: HEK293 cells expressing human HA-SGLT1, 14C-AMG uptake. In a few lines: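 Uptake of 14C-AMG (100 nCi) was measured by scintillation counting after 1–2 h at 37 °C, 5% CO2, with or without compound. The buffer was pH 7.3 with 140 mM NaCl, 1 mM CaCl2, 1 mM MgCl2 and 1 mg/mL BSA. Cells were a stable HEK293 line carrying HA-SGLT1 (human), plated overnight at 30,000 per well.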

The target of assay [2] is Human sodium/glucose co-transporter type 2 (SGLT2) (Homo sapiens (Human), UniProt P31639). The assay can be described thus: In vitro human SGLT2 inhibition assay (14C-AMG uptake). In kind it is cell-based. To be noted: HEK293 cells expressing human HA-SGLT2, 14C-AMG uptake. In a few lines: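 Uptake of 14C-AMG (100 nCi) was followed in a stable HEK293 HA-SGLT2 line over 1-2 h at 37 °C with or without compound. Buffer: 140 mM NaCl, 10 mM HEPES, 5 mM Tris, 1 mg/mL BSA, pH 7.3. Readout was scintillation counting after washing.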
Chain of Human sodium/glucose co-transporter type 2 (SGLT2) (P31639 whole entry): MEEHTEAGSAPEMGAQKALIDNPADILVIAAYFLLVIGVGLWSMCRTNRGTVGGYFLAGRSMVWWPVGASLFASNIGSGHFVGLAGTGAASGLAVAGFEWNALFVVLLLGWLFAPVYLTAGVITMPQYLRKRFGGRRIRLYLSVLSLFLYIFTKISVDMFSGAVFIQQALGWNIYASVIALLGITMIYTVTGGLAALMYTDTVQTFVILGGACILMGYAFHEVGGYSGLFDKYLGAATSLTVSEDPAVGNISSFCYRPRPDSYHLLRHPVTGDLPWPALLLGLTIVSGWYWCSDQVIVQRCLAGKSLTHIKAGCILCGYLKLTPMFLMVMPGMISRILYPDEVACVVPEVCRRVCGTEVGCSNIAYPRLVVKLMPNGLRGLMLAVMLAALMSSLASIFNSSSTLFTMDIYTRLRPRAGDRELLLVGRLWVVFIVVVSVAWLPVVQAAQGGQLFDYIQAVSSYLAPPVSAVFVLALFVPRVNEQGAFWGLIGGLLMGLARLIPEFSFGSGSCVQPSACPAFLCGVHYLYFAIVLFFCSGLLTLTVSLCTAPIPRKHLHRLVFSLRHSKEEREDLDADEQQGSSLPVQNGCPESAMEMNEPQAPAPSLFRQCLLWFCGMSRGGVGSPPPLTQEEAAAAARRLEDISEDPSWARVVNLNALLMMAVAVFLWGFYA

Chain of Human sodium/glucose co-transporter type 1 (SGLT1) (P13866 whole entry): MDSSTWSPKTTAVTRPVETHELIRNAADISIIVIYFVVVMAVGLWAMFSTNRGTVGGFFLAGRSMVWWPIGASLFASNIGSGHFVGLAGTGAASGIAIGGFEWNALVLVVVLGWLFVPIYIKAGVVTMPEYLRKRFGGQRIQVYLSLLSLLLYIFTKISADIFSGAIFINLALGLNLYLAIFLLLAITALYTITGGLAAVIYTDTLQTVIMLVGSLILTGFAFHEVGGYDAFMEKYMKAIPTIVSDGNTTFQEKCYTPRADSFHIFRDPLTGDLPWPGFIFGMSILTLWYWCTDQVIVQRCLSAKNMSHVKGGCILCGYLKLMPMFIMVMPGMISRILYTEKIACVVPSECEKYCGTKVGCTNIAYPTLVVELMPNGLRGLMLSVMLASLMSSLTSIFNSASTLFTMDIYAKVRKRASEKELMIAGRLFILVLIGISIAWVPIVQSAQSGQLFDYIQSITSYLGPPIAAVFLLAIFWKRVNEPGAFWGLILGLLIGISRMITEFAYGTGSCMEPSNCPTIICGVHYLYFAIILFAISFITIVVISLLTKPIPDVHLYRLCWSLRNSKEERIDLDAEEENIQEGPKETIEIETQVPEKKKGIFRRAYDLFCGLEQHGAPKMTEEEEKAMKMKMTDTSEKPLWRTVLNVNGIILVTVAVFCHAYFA

For orientation: IC50 means the concentration needed to halve the response being measured. Consider `CS[C@H]1OC(c2ccc(C)c(Cc3ccc(OCCCNCC(C)(C)CO)cc3)c2)[C@H](O)[C@@H](O)[C@@H]1O` (stereo partly drawn) [(3R,4R,5S,6R)-2-(3-(4-(3-((3-hydroxy-2,2-dimethylpropyl)amino)propoxy)benzyl)-4-methylphenyl)-6-(methylthio)tetrahydro-2H-pyran-3,4,5-triol], for which the 50% inhibitory concentration (IC50) in assay [1] and in assay [2] was less than 0.01 µM each time.
With `CS[C@H]1O[C@@H](c2ccc(C)c(Cc3ccc(CCCCNC(=O)NC(CO)(CO)CO)cc3)c2)[C@H](O)[C@@H](O)[C@@H]1O` [1-(1,3-dihydroxy-2-(hydroxymethyl)propan-2-yl)-3-(4-(4-(2-methyl-5-((2S,3R,4R,5S,6R)-3,4,5-trihydroxy-6-(methylthio)tetrahydro-2H-pyran-2-yl)benzyl)phenyl)butyl)urea], the IC50 in assay [1] and in assay [2] was less than 0.01 µM each time.
`COCCOCCOc1ccc(Cc2cc([C@@H]3O[C@H](SC)[C@@H](O)[C@H](O)[C@H]3O)ccc2Cl)cc1` [(2S,3R,4R,5S,6R)-2-(4-chloro-3-(4-(2-(2-methoxyethoxy)ethoxy)benzyl)phenyl)-6-(methylthio)tetrahydro-2H-pyran-3,4,5-triol]: the IC50 was less than 0.1 µM in assay [1] and less than 0.01 µM in assay [2].
In the same order, the values of `CCN(CC)CCCCc1ccc(Cc2cc([C@@H]3O[C@H](SC)[C@@H](O)[C@H](O)[C@H]3O)ccc2C)cc1` [(2S,3R,4R,5S,6R)-2-(3-(4-(4-(diethylamino)butyl)benzyl)-4-methylphenyl)-6-(methylthio)tetrahydro-2H-pyran-3,4,5-triol] are less than 0.01 µM and less than 0.01 µM.
The like results for `CS[C@H]1O[C@@H](c2ccc(C)c(Cc3ccc(CCCCN(CC(O)CO)CC(O)CO)cc3)c2)[C@H](O)[C@@H](O)[C@@H]1O` (stereo partly drawn) [(2S,3R,4R,5S,6R)-2-(3-(4-(4-(bis(2,3-dihydroxypropyl)amino)butyl)benzyl)-4-methylphenyl)-6-(methylthio)tetrahydro-2H-pyran-3,4,5-triol] were, in that order, less than 0.01 µM and less than 0.01 µM.
As for `CS[C@H]1O[C@@H](c2ccc(C)c(Cc3ccc(CCCCC(=O)NC(CO)(CO)CO)cc3)c2)[C@H](O)[C@@H](O)[C@@H]1O` [N-(1,3-dihydroxy-2-(hydroxymethyl)propan-2-yl)-5-(4-(2-methyl-5-((2S,3R,4R,5S,6R)-3,4,5-trihydroxy-6-(methylthio)tetrahydro-2H-pyran-2-yl)benzyl)phenyl)pentanamide], the IC50 in assay [1] and in assay [2] was less than 0.01 µM in each case.
Take `CS[C@H]1O[C@@H](c2ccc(C)c(Cc3ccc(OCCNC(C)(C)CO)cc3)c2)[C@H](O)[C@@H](O)[C@@H]1O` [(2S,3R,4R,5S,6R)-2-(3-(4-(2-((1-hydroxy-2-methylpropan-2-yl)amino)ethoxy)benzyl)-4-methylphenyl)-6-(methylthio)tetrahydro-2H-pyran-3,4,5-triol]: the IC50 in assay [1] and in assay [2] was less than 0.01 µM in each case.
For the molecule `CS[C@H]1O[C@@H](c2ccc(C)c(Cc3ccc(OCCCC(=O)NC(C)(C)C(=O)NC4CCN(C)CC4)cc3)c2)[C@H](O)[C@@H](O)[C@@H]1O` [N-(2-methyl-1-((1-methylpiperidin-4-yl)amino)-1-oxopropan-2-yl)-4-(4-(2-methyl-5-((2S,3R,4R,5S,6R)-3,4,5-trihydroxy-6-(methylthio)tetrahydro-2H-pyran-2-yl)benzyl)phenoxy)butanamide], the IC50 in assay [1] and in assay [2] was less than 0.01 µM throughout.
In the case of `CS[C@H]1O[C@@H](c2ccc(C)c(Cc3ccc(CCCCCNC(=O)NC(C)(C)C(N)=O)cc3)c2)[C@H](O)[C@@H](O)[C@@H]1O` [2-methyl-2-(3-(5-(4-(2-methyl-5-((2S,3R,4R,5S,6R)-3,4,5-trihydroxy-6-(methylthio)tetrahydro-2H-pyran-2-yl)benzyl)phenyl)pentyl)ureido)propanamide], the IC50 was less than 0.1 µM in assay [1] and less than 0.01 µM in assay [2].
The like results for `CS[C@H]1O[C@@H](c2ccc(C)c(Cc3ccc(CCCCNCC(C)(C)C(=O)N4CCN(C)CC4)cc3)c2)[C@H](O)[C@@H](O)[C@@H]1O` [2,2-dimethyl-3-((4-(4-(2-methyl-5-((2S,3R,4R,5S,6R)-3,4,5-trihydroxy-6-(methylthio)tetrahydro-2H-pyran-2-yl)benzyl)phenyl)butyl)amino)-1-(4-methylpiperazin-1-yl)propan-1-one] were, in that order, less than 0.01 µM and less than 0.01 µM.
The like results for `CS[C@H]1OC(c2ccc(C)c(Cc3ccc(CCCCCl)cc3)c2)[C@H](O)[C@@H](O)[C@@H]1O` (stereo partly drawn) [(3R,4R,5S,6R)-2-(3-(4-(4-chlorobutyl)benzyl)-4-methylphenyl)-6-(methylthio)tetrahydro-2H-pyran-3,4,5-triol] were, in that order, less than 0.01 µM and less than 0.01 µM.
In the same order, the values of `CS[C@H]1O[C@@H](c2ccc(C)c(Cc3ccc(CCCCNC4(C(N)=O)CCCC4)cc3)c2)[C@H](O)[C@@H](O)[C@@H]1O` [1-((4-(4-(2-methyl-5-((2S,3R,4R,5S,6R)-3,4,5-trihydroxy-6-(methylthio)tetrahydro-2H-pyran-2-yl)benzyl)phenyl)butyl)amino)cyclopentanecarboxamide] are less than 0.1 µM and less than 0.01 µM.
On to `CS[C@H]1O[C@@H](c2ccc(Cl)c(Cc3ccc(OCCCNC(=O)C(C)(C)CO)cc3)c2)[C@H](O)[C@@H](O)[C@@H]1O` [N-(3-(4-(2-chloro-5-((2S,3R,4R,5S,6R)-3,4,5-trihydroxy-6-(methylthio)tetrahydro-2H-pyran-2-yl)benzyl)phenoxy)propyl)-3-hydroxy-2,2-dimethylpropanamide], for which the half-maximal inhibitory concentration (IC50) in assay [1] is less than 0.1 µM; in assay [2], less than 0.01 µM.
In the same order, the values of `CS[C@H]1O[C@@H](c2ccc(C)c(Cc3ccc(CCCCCN)cc3)c2)[C@H](O)[C@@H](O)[C@@H]1O` [(2S,3R,4R,5S,6R)-2-(3-(4-(5-aminopentyl)benzyl)-4-methylphenyl)-6-(methylthio)tetrahydro-2H-pyran-3,4,5-triol] are less than 0.1 µM and less than 0.01 µM.
As for `CS[C@H]1O[C@@H](c2ccc(C)c(Cc3ccc(CCCC(=O)NC(C)(C)C(=O)N(C)CCN(C)C)cc3)c2)[C@H](O)[C@@H](O)[C@@H]1O` [N-(1-((2-(dimethylamino)ethyl)(methyl)amino)-2-methyl-1-oxopropan-2-yl)-4-(4-(2-methyl-5-((2S,3R,4R,5S,6R)-3,4,5-trihydroxy-6-(methylthio)tetrahydro-2H-pyran-2-yl)benzyl)phenyl)butanamide], the IC50 in assay [1] and in assay [2] was less than 0.01 µM each time.
On to `CS[C@H]1O[C@@H](c2ccc(C)c(Cc3ccc(CCCCNC(=O)NC(C)(C)C(N)=O)cc3)c2)[C@H](O)[C@@H](O)[C@@H]1O` [2-methyl-2-(3-(4-(4-(2-methyl-5-((2S,3R,4R,5S,6R)-3,4,5-trihydroxy-6-(methylthio)tetrahydro-2H-pyran-2-yl)benzyl)phenyl)butyl)ureido)propanamide], for which the IC50 in assay [1] and in assay [2] was less than 0.01 µM throughout.
As for `CSC1OC(c2ccc(C)c(Cc3ccc(CCCC(=O)N4CCN(CCCN5CCN(C(=O)CCCc6ccc(Cc7cc(C8OC(SC)C(O)C(O)C8O)ccc7C)cc6)CC5)CC4)cc3)c2)C(O)C(O)C1O` [(S,R,S,R,R)-1,1′-(4,4′-(propane-1,3-diyl)bis(piperazine-4,1-diyl))bis(4-(4-(2-methyl-5-((2S,3R,4R,5S,6R)-3,4,5-trihydroxy-6-(methylthio)tetrahydro-2H-pyran-2-yl)benzyl)phenyl)butan-1-one)], the IC50 in assay [1] and in assay [2] was less than 0.01 µM in each case.
For the molecule `CS[C@H]1O[C@@H](c2ccc(C)c(Cc3ccc(OCCNCC(C)(C)C(N)=O)cc3)c2)[C@H](O)[C@@H](O)[C@@H]1O` [2,2-dimethyl-3-((2-(4-(2-methyl-5-((2S,3R,4R,5S,6R)-3,4,5-trihydroxy-6-(methylthio)tetrahydro-2H-pyran-2-yl)benzyl)phenoxy)ethyl)amino)propanamide], the IC50 in assay [1] and in assay [2] was less than 0.01 µM throughout.
As for `CS[C@H]1O[C@@H](c2ccc(C)c(Cc3ccc(OCCCC(=O)NC(C)(C)C(=O)N4CCN(C)CC4)cc3)c2)[C@H](O)[C@@H](O)[C@@H]1O` [N-(2-methyl-1-(4-methylpiperazin-1-yl)-1-oxopropan-2-yl)-4-(4-(2-methyl-5-((2S,3R,4R,5S,6R)-3,4,5-trihydroxy-6-(methylthio)tetrahydro-2H-pyran-2-yl)benzyl)phenoxy)butanamide], the IC50 in assay [1] and in assay [2] was less than 0.01 µM each time.
In the case of `CS[C@H]1O[C@@H](c2ccc(C)c(Cc3ccc(CCCCCNCc4ccccc4)cc3)c2)[C@H](O)[C@@H](O)[C@@H]1O` [(2S,3R,4R,5S,6R)-2-(3-(4-(5-(benzylamino)pentyl)benzyl)-4-methylphenyl)-6-(methylthio)tetrahydro-2H-pyran-3,4,5-triol], the half-maximal inhibitory concentration (IC50) in assay [1] is less than 0.1 µM; in assay [2], less than 0.01 µM.
The like results for `CS[C@H]1O[C@@H](c2ccc(C)c(Cc3ccc(CCCC(=O)NC(CO)(CO)CO)cc3)c2)[C@H](O)[C@@H](O)[C@@H]1O` [N-(1,3-dihydroxy-2-(hydroxymethyl)propan-2-yl)-4-(4-(2-methyl-5-((2S,3R,4R,5S,6R)-3,4,5-trihydroxy-6-(methylthio)tetrahydro-2H-pyran-2-yl)benzyl)phenyl)butanamide] were, in that order, less than 0.01 µM and less than 0.01 µM.
